Read-outs that look alike come from different tables or passages of the source.

Series [1] concerns Salmonella typhimurium TA1538. Kind of series: Ames assay (dark mutagenicity), strain TA1538. An excerpt:
(§1) The second property that is important in testing a compound for use in methods of the present invention is mutagenicity. The most widely used mutagen/carcinogen screening assay is the Ames test. This assay is described by D. M. Maron and B. N. Ames in Mutation Research 113: 173 ( 1983) and a specific screen is described in detail in Example 17, below. The Ames test utilizes several unique strains of Salmonella typhimurium that are histidine- dependent for growth and that lack the usual DNA repair enzymes. The frequency of normal mutations that render the bacteria independent of histidine (i.e., the frequency of spontaneous revertants) is low. The test allows one to evaluate the impact of a compound on this revertant frequency.
(§2) In this example the compounds of the present invention are tested for their dark mutagenicity using an Ames assay. The procedures used for the Salmonella mutagenicity test as described in detail by Maron and Ames were followed exactly. Maron, D. M. and B. N. Ames, Mutation Research 113: 173 ( 1983). A brief description for each procedure is given here. The tester strains TA97a, TA98, TA100, TA102, TA1537 and TA1538 were obtained from Dr. Ames. TA97a, TA98, TA1537 and TA1538 are frameshift tester strains. TA100 and TA102 are base-substitution tester strains. Upon receipt each strain was cultured under a variety of conditions to confirm the genotypes specific to the strains.
(§3) The first tests done with the strains were to determine the range of spontaneous reversion for each of the strains. With each mutagenicity experiment the spontaneous reversion of the tester strains to histidine independence was measured and expressed as the number of spontaneous revertants per plate. This served as the background controls.
(§4) For all experiments, the pre-incubation procedure was used. In this procedure one vial of each tester strain was thawed and 20 μL of this culture was added to 6 mL of Oxoid Nutrient Broth #2. This solution was allowed to shake for 10 hours at 37° C. In the pre-incubation procedure, 0.1 mL of this overnight culture was added to each of the required number of sterile test tubes. To half of the tubes 0.5 mL of a 10% S-9 solution containing Aroclor 1254 induced rat liver extract (Molecular Toxicology Inc., Annapolis, Md.), and MgCl2, KCl, glucose-6-phosphate, NADP, and sodium phosphate buffer (Sigma, St. Louis, Mo.) were added. To the other half of the tubes 0.5 mL of 0.2M sodium phospate buffer, pH 7.4, was used in place of the S-9 mixture (the -S9 samples). Finally 0.1 mL of the test solution containing either 0, 0.1, 0.5, 1, 5, 10, 50, 100, 250, or 500 μg/mL of the test compound was added. The 0.7 mL mixture was vortexed and then pre-incubated while shaking for 20 minutes at 37° C. After shaking, 2 mL of molten top agar supplemented with histidine and biotin were added to the 0.7 mL mixture and immediately poured onto a minimal glucose agar plate (volume of base agar was 20 mL). The top agar was allowed 30 minutes to solidify and then the plates were inverted and incubated for 44 hours at 37° C. After incubation the number of revertant colonies on each plate were counted. […] (“n” represents the number of replicates performed for each data point.)
(§5) Maron and Ames (1983) describe the conflicting views with regard to the statisical treatment of data generated from the test.
Background: In the Ames test, an excess of revertant colonies over the control signals mutagenicity.

Series [2] concerns HIV-1. The conditions noted are these: concentrations of 64 μM of compound or higher.
Method: Pathogen inactivation efficiency of several compounds of the present invention was evaluated by examining the ability of the compounds to inactivate cell-free virus (HIV). Inactivation of cell-free HIV was performed as follows.
As in the R17 assay, small aliquots of the compounds listed in TABLES 10 and 11, below, at the concentrations listed in the table, were added to stock HIV-1 to a total of 0.5 mL. The stock HIV (10^5-10^7 plaque forming units/mL) was in DMEM/15% FBS. […] Controls included HIV-1 stock only, HIV-1 plus UVA only, and HIV-1 plus the highest concentration of each psoralen tested, with no UVA. Post irradiation, all samples were stores frozen at −70° C. until assayed for infectivity by a microtiter plaque assay. Aliquots for measurement of residual HIV infectivity in the samples treated with a compound of the present invention were withdrawn and cultured.
Residual HIV infectivity was assayed using an MT-2 infectivity assay. […] After 24 to 48 hours, the red fluorescence-stained microplaques were visualized by placing the plates on an 8,000 μW/cm^2 304 nm UV light box (Fotodyne, Inc., New Berlin, Wis.). The plaques were counted at a magnification of ×20 to ×25 through a stereomicroscope.
The test system of series [3] is Salmonella tester strains TA97a, TA98, TA100, TA102, TA1537 and TA1538. Put plainly: Ames assay, overall assessment over the tester strains. The conditions noted are these: strains tested: TA100 and TA1538, ±S9, 5 and 10 μg/plate.
Source text: as §1, §2, §3
For all experiments, the pre-incubation procedure was used. In this procedure one vial of each tester strain was thawed and 20 μL of this culture was added to 6 mL of Oxoid Nutrient Broth #2. This solution was allowed to shake for 10 hours at 37° C. In the pre-incubation procedure, 0.1 mL of this overnight culture was added to each of the required number of sterile test tubes. To half of the tubes 0.5 mL of a 10% S-9 solution containing Aroclor 1254 induced rat liver extract (Molecular Toxicology Inc., Annapolis, Md.), and MgCl2, KCl, glucose-6-phosphate, NADP, and sodium phosphate buffer (Sigma, St. Louis, Mo.) were added. To the other half of the tubes 0.5 mL of 0.2M sodium phospate buffer, pH 7.4, was used in place of the S-9 mixture (the -S9 samples). Finally 0.1 mL of the test solution containing either 0, 0.1, 0.5, 1, 5, 10, 50, 100, 250, or 500 μg/mL of the test compound was added. […] After incubation the number of revertant colonies on each plate were counted. […]

Series [4] concerns Salmonella typhimurium TA100.
Source text: as §1, §2, §3, §4, §5

`Cc1oc2c(C)c3oc(=O)cc(C)c3cc2c1CCN` [Compound 3, 4′-(2-aminoethyl)-4,5′,8-trimethylpsoralen]: the revertants per plate in series [1] (TA1538 −S9, 5 μg/plate) was 0; in series [1] (TA1538 −S9, 10 μg/plate), −6; in series [4] (TA100 +S9, 5 μg/plate), −19; in series [4] (TA100 +S9, 10 μg/plate), 8. For the same compound, the “HIV inactivation activity compared with AMT” value in series [2] was “significantly more active than AMT”. For the same compound, in series [3], the “mutagenicity (overall)” value is “no mutagenicity”.

The record behind these values is patent publication US6469052B2, “Compounds for the photodecontamination of pathogens in blood” (Cerus Corporation, priority 1993, dated 2002).
